# Reference: patent US20060062859A1, “Composition and method to optimize and customize nutritional supplement formulations by measuring genetic and metabolomic contributing factors to disease diagnosis, stratification, prognosis, metabolism, and therapeutic outcomes” (priority 2004, published 2006)
# Like-named read-outs stand apart in the source and are kept apart here.
# Columns and labels:
# [1] = 2 g of HCA; fasting and fed subjects; cited from earlier work
# ATP-citrate lyase = target: T1, ATP-citrate lyase (Homo sapiens, UniProt P53396); conditions: cited from earlier work
# T1 sequence (P53396 1-1101): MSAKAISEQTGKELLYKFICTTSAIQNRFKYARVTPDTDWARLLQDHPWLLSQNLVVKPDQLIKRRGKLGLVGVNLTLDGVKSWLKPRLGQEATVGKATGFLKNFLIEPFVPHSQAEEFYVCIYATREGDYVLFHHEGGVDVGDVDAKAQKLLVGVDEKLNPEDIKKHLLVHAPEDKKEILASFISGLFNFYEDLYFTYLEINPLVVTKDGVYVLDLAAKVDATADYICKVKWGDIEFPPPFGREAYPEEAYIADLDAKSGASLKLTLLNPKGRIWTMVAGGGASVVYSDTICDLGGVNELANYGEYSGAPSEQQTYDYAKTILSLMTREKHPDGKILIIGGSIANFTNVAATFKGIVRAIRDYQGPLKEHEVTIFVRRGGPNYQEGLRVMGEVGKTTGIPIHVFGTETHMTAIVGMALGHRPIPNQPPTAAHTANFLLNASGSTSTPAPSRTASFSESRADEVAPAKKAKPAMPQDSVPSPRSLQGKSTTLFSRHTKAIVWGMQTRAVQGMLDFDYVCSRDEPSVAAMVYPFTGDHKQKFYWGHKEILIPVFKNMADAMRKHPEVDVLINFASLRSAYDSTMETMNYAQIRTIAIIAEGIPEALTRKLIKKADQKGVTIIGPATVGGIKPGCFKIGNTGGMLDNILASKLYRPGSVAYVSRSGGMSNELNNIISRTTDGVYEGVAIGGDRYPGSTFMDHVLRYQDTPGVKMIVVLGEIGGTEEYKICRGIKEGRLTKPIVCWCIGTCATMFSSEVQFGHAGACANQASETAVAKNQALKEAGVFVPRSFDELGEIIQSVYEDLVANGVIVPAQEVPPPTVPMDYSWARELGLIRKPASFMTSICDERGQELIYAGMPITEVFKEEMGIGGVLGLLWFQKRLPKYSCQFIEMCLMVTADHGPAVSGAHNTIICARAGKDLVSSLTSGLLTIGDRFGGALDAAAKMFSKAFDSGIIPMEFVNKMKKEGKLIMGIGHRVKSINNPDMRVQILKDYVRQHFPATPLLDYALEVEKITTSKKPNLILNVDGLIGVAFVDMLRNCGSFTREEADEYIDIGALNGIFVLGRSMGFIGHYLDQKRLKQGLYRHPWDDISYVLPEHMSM
# [2] = 1320 mg/day, eight weeks, 1200 kcal/day; cited from earlier work
# [3] = HCA 440 mg t.i.d. eight weeks (Thom); set-up: species or system human; conditions: in vivo
# Description: The Thom study indicates a dosage level of 440 mg of HCA (as opposed to GcE) t.i.d. (1320 mg/day) for eight weeks. […] The mean “weight loss” in the HCA group was 6.4 kg, 1.68 times greater than placebo. […] The GcE was taken in conjunction with 1200 mg L-Carnitine and 600 mcg chromium (from picolinate) and compared to placebo in 186 subjects (200 began the study) for 4 weeks. All participants were supposed to engage in an exercise regimen calibrated to personal needs. Loss of body fat in the treatment group averaged 1.29 kg compared to 0.64 kg in the placebo ([…]. The Girola study investigated the effects of chitosan, combined with a low amount of GcE, making a comparative evaluation impossible. In fact, variables in the studies noted, and others not mentioned, make conclusions about the efficacy of GcE for “weight loss” extremely difficult.
# [4] = in vivo; cited from earlier work
# [5] = 2 weeks; cited from earlier work
# [6] = 3.0 g/day for 3 days; fasting state, rest or moderate exercise; cited from earlier work
# release of serotonin = conditions: long lasting and dose dependent; cited from earlier work
# [7] = injections; cited from earlier work
# [8] = test system: sweet and bitter receptors on the tongue; conditions: in vivo; cited from earlier work
# [9] = cited from earlier work
# opioid receptor = conditions: intra-VTA infusions; cited from earlier work
# [10] = in vivo; cited from earlier work; remark: listed apart in the source
# [11] = people with RA; cited from earlier work
# [12] = Compliance with Trexan after rapid detoxification of methadone patients; assay type: in vivo, human; conditions: P<0.0001
# Description: Over the last decade, a new rapid method to detoxify either methadone or heroin addicts utilizing TrexanR sparked interest in many treatment centers throughout the United States, Canada, as well as many countries on a worldwide basis. […] It may also be interesting too further test this hypothesis with the sublingual combination of the partial opiate mu receptor agonist buprenorphrine. The ingredients tested included DL-phenylalanine (2760 mg/day), L-Glutamine (150 mg/day), chromium picolinate (360 micrograms/day), pyridoxal-5-phosphate (30 mg/day). • Most recently a study was performed by Julia Ross best selling author of The Diet Cure (Viking Press USA, 1999; Penguin UK, Au, and USA, 2000), in an outpatient clinic in Mill Valley, Calif. involving amino-acid therapy and enkephalinase inhibition based on Blum's work. […]
# [13] = nucleus accumbens microinjections; cited from earlier work
# [14] = double-blind placebo controlled; cited from earlier work
# lipolysis = conditions: p <0.01; cited from earlier work
compound,measurement,setting,value
"O=C(O)CC(O)(C(=O)O)C(O)C(=O)O (stereo not drawn) [HCA, (−)—Hydroxycitric acid]",time to peak plasma levels,[1],approximately 2 hours
same,inhibition of ATP-citrate lyase,ATP-citrate lyase,competitively inhibit
same,inhibition of ATP-citrate lyase,ATP-citrate lyase; listed as FCA,competitive inhibitor
same,mean weight loss,[2],6.4 kg
same,weight loss relative to placebo,[3],1.68 times greater than placebo
same,satiety,[4],no observable effects
same,satiety and energy intake compared to placebo,[5],did not increase satiety or effect energy intake
same,short-term rate of fat oxidation,[6],did not alter
"N[C@@H](Cc1c[nH]c2ccc(O)cc12)C(=O)O [5-HTP, 5-hydroxy-l-tryptophan]",5-HT in dialysates,release of serotonin,immediate increase
"NC(Cc1ccc(Cl)cc1)C(=O)O (centres unmarked) [Para-Chlora-Phenylalanine (PCA), Para-Chlora-Phenylalanine]",induction of stress,[7],attenuated
gurmarin,sweet taste of glucose and sucrose,[8],block
O=C1CC[C@@]2(O)[C@H]3Cc4ccc(O)c5c4[C@@]2(CCN3CC2CC2)[C@H]1O5 [Naltrexone],body weight,[9]; anorexic patients,weight gain
same,binge-eating,[9]; bulimics,some reduction
same,stress-induced activation of dopamine metabolism in the NAcc and prefrontal cortex,opioid receptor,prevent
"O=S(=O)([O-])[O-].[O]=[V+2] [vanadyl, Vanadyl sulfate]",blood sugar levels,[10],very effective in normalizing blood sugar levels
"CCCCC/C=C\C/C=C\C/C=C\CCCCC(=O)O [GLA, GAMMA-LINOLENIC ACID]",RA symptoms,[11],significant improvements
O=C1CC[C@@]2(O)[C@H]3Cc4ccc(O)c5c4[C@@]2(CCN3CC2CC2)[C@H]1O5 [Trexan],average number of days of compliance,[12],37 days
C[C@H](NC(=O)[C@@H](CC(=O)NO)Cc1ccccc1)C(=O)O [kelatrophan],intracranial self-stimulation,[13],reduced
NC(Cc1ccccc1)C(=O)O (racemic) [dl-phenylalanine],psychosocial stress as measured by SCL,[14],reduces stress
C[C@]12CCC(=O)C=C1CC[C@@H]1[C@@H]2[C@@H](O)C[C@@]2(C)[C@H]1CC[C@]2(O)C(=O)CO [cortisol],basal rate of lipolysis,lipolysis,significantly reduced
